Earlier results on five compounds are cited in US20260210975A1, “DIAGNOSIS AND TREATMENT OF LONG-COVID” (priority 2022, published 2026).

Read-outs that look alike come from different tables or passages of the source.

This data set deals with KCNH2 (Homo sapiens, UniProt Q12809).
Chain of KCNH2 (Q12809 whole entry): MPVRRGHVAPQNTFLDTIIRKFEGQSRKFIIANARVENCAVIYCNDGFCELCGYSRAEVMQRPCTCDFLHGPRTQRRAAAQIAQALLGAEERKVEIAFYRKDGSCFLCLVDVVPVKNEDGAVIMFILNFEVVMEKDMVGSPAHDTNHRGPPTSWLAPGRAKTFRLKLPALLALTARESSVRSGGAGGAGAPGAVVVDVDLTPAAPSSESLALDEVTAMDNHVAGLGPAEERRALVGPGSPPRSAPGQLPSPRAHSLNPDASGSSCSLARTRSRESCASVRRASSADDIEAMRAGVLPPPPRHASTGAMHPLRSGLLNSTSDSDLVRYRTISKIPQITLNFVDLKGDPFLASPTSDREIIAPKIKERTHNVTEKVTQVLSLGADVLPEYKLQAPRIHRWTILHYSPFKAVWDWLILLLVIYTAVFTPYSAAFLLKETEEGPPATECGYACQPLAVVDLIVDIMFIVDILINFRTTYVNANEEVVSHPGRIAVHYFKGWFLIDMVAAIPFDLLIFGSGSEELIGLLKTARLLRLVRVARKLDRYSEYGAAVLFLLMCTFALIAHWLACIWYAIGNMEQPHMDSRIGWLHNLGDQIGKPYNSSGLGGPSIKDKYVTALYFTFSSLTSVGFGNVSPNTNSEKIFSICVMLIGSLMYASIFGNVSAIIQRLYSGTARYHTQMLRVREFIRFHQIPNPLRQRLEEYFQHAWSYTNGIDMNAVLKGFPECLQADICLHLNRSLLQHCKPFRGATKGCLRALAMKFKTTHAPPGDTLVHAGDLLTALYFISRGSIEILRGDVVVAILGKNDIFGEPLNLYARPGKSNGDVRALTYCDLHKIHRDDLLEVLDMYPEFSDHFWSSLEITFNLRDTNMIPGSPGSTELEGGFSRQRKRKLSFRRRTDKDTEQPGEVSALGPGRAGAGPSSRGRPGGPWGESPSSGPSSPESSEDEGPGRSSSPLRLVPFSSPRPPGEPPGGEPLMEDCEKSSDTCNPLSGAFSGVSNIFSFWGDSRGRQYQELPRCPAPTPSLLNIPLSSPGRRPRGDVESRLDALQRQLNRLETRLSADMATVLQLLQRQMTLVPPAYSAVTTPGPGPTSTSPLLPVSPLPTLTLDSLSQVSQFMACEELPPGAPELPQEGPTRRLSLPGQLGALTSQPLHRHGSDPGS

Consider `COc1ccc(CN(CCN(C)C)c2ccccn2)cc1` [pyrilamine], for which the IC50 was about 6 µM.
On to arsenic trioxide, for which the IKr entry (listed as weak inhibitor of KCNH2, literature value) is listed as “approximately 300 μmol/l”.
As for `Cc1cc2c(s1)Nc1ccccc1N=C2N1CCN(C)CC1` [olanzapine], the IC50 was about 6.01 µM.
Consider prenylamine, for which the IC50 (read-out: IC50 (half maximal inhibitory concentration), KCNH2 inhibitors, literature values) is about 0.59 µM.
As to `C[C@@H]1CN(c2c(F)c(N)c3c(=O)c(C(=O)O)cn(C4CC4)c3c2F)C[C@H](C)N1` [sparfloxacin], the IC50 is about 18 µM.
